# Laboratory results from EPA's ToxValDB 9.5.
# Where “and” joins values, the source holds several entries; their conditions need not be identical. Equal values may be shown once. Where a name gives a salt, the structure may show the parent alone.
# System: Rattus norvegicus
# Conditions: for LC50 / LD50: acute
# [1] = reproduction developmental, oral, gavage, Wistar
# [2] = repeat dose other, inhalation, Sprague-Dawley
# [3] = subchronic, duration: 3 months, inhalation, Sprague-Dawley
# [4] = chronic, duration: 16 weeks, oral, diet, Wistar
smiles,measurement,setting,value
COC(=O)CC(C)(C)C(Cl)CC(Cl)(Cl)Cl (stereo not given),LC50,"inhalation, Sprague-Dawley",> 66.6 mg/m3
same,LD50,"oral, Sprague-Dawley",> 5000 mg/kg
CC(C)C(=O)OCC(C)(C)C(OC(=O)c1ccccc1C(=O)OCc1ccccc1)C(C)C (stereo not given),LD50,"oral, gavage, Sprague-Dawley",> 18500 mg/kg
CC(C)CC(C)OP(=S)([S-])OC(C)CC(C)C.CC(C)CC(C)OP(=S)([S-])OC(C)CC(C)C.[Zn+2] (stereo not given),LD50,"oral, gavage, Sprague-Dawley",≥ 2000 mg/kg and ≤ 5000 mg/kg
COC(=O)C1C(C=C(Cl)Cl)C1(C)C (stereo not given),LD50,"oral, gavage, Sprague-Dawley",> 5000 mg/kg
same,NOAEL,"reproduction developmental, duration: 28 days, oral, gavage, Sprague-Dawley",450 mg/kg-day
Cc1cccc2[nH]c([S-])nc12.Cc1cccc2[nH]c([S-])nc12.[Zn+2],LD50,"dermal, semiocclusive, Sprague-Dawley",> 2000 mg/kg
same,LC50,"inhalation, Sprague-Dawley",> 2.03 µg/mL
same,LD50,oral,800 mg/kg
"c1ccc(-c2cccc(-c3ccccc3)c2)cc1 [1,1':3',1''-Terphenyl]",LD50,"oral, gavage, Sprague-Dawley",2400 mg/kg
same,LOAEL (% diet),"short-term, duration: 14 days, oral, diet, Wistar",0.2
"O=C1OCCO1 [1,3-Dioxolan-2-one]",LD50,"dermal, Wistar",> 2000 mg/kg
same,LD50,"oral, Sprague-Dawley",> 5000 mg/kg
same,NOAEL,"reproduction developmental, duration: 9 days, oral, gavage, F, Sprague-Dawley",1500 mg/kg-day and 750 mg/kg-day
"C1=C\CC/C=C\CC/1 [1,5-Cyclooctadiene]",LD50,"dermal, occlusive, Crl:CD1",> 3520 mg/kg
same,LD50,oral,2380 mg/kg
same,NOAEL,"short-term, duration: 2 weeks, inhalation, M",664 mg/m3
C=CCC [1-Butene],NOAEL,"reproduction developmental, duration: 28 days, inhalation, Sprague-Dawley, generation: F0",18400 mg/m3
same,NOAEL,"reproduction developmental, inhalation, F, Sprague-Dawley",18400 mg/m3
same,NOAEL,"reproduction developmental, inhalation, M, Sprague-Dawley",18400 mg/m3
same,NOAEL,"reproduction developmental, inhalation, Sprague-Dawley, generation: F0",18400 mg/m3
same,NOAEL,"reproduction developmental, inhalation, Sprague-Dawley, generation: F1",18400 mg/m3
O=[N+]([O-])c1cccc(Cl)c1 [1-Chloro-3-nitrobenzene],LD50,"oral, gavage, Sprague-Dawley",400 mg/kg
"CCC(C)(C#N)N=NC(C)(C#N)CC (stereo not given) [2,2'-Azobis(2-methylbutanenitrile)]",LD50,"oral, Sprague-Dawley",337 mg/kg
"Clc1cc(Cl)c(Cl)nc1Cl [2,3,5,6-Tetrachloropyridine]",LD50,oral,≥ 1180 mg/kg and ≤ 1410 mg/kg
same,LD50,"oral, gavage",1000 mg/kg
same,NOAEL,"chronic, duration: 91 days, oral, diet, Sherman Wistar",100 mg/kg-day
same,NOAEL,"reproduction developmental, duration: 52 days, oral, gavage, F, Sprague-Dawley",25 mg/kg-day
same,NOAEL,"reproduction developmental, duration: 52 days, oral, gavage, M, Sprague-Dawley",150 mg/kg-day
same,NOAEL,"reproduction developmental, duration: 52 days, oral, gavage, Sprague-Dawley",150 mg/kg-day
same,NOAEL,"reproduction developmental, duration: 52 days, oral, gavage, Sprague-Dawley, generation: F1",150 mg/kg-day
same,NOAEL,"subchronic, duration: 52 days, oral, gavage, F, Sprague-Dawley",25 mg/kg-day
same,NOAEL,"subchronic, duration: 52 days, oral, gavage, M, Sprague-Dawley",150 mg/kg-day
"CC(C)(C)c1cc(C(C)(C)C)c(O)c(C(C)(C)C)c1 [2,4,6-Tris(tert-butyl)phenol]",LD50,"oral, Wistar",1610 mg/kg and 1670 mg/kg
same,NOAEL,"chronic, duration: 24 months, oral, diet, Wistar",2.34 mg/kg-day
CC=C(C)C [2-Methyl-2-butene],NOAEL,"reproduction developmental, duration: 28 days, inhalation, Sprague-Dawley",1660 mg/m3
same,NOAEL,"reproduction developmental, inhalation, Sprague-Dawley",20100 mg/m3
"CC(CC(=O)O)CC(C)(C)C (stereo not given) [3,5,5-Trimethylhexanoic acid]",NOAEL,"reproduction developmental, oral, diet, F, Sprague-Dawley",1200 ppm
same,NOAEL,"reproduction developmental, oral, diet, Sprague-Dawley, generation: F1",1200 ppm
Cc1ccc(S(=O)(=O)O)cc1 [4-Methylbenzenesulfonic acid],LD50,"oral, Wistar",1410 mg/kg
same,NOAEL,"short-term, duration: 28 days, oral, Wistar",> 500 mg/kg-day
C=CCCC#N [4-Pentenenitrile],LC50,"inhalation, Sprague-Dawley",8460 mg/m3
CSC(C)(C)/C=N/O [Aldicarb oxime],LD50,"oral, Wistar",809 mg/kg
same,LOAEL,[1],25 mg/kg-day
same,NOAEL,[1],5 mg/kg-day
"CC(C)CC(C)OC(=O)/C=C\C(=O)OC(C)CC(C)C (stereo not given) [Bis(1,3-dimethylbutyl) maleate]",LD50,"oral, gavage, Wistar",7460 mg/kg
CC(=O)C(N=Nc1ccc(-c2ccc(N=NC(C(C)=O)C(=O)Nc3ccccc3)c(Cl)c2)cc1Cl)C(=O)Nc1ccccc1 (stereo not given) [C.I. Pigment Yellow 12],NOAEL,"reproduction developmental, oral, gavage, Wistar, generation: F0",1000 mg/kg-day
same,NOAEL,"reproduction developmental, oral, gavage, Wistar, generation: F1",1000 mg/kg-day
CC(=O)C(=NNc1ccc(-c2ccc(NN=C(C(C)=O)C(=O)Nc3ccc(C)cc3C)c(Cl)c2)cc1Cl)C(=O)Nc1ccc(C)cc1C [C.I. Pigment Yellow 13],NOAEL,"chronic, oral, gavage",500 mg/kg-day
CCCCCCCCCCCCOCCOCCOS(=O)(=O)[O-].[Na+] [Diethylene glycol monolauryl ether sulfate sodium salt],LD50,"oral, gavage, Sprague-Dawley",> 5000 mg/kg
CC(C)OC(=O)CCCCC(=O)OC(C)C [Diisopropyl adipate],LD50,oral,> 15000 mg/kg
CCCCCCCCCCCCCCN(C)C [Dimethyl(tetradecyl)amine],LD50,"oral, gavage",2120 mg/kg
same,LD50,"oral, gavage, Wistar",1320 mg/kg
c1ccc(Oc2ccccc2)cc1 [Diphenyl oxide],LD50,"oral, gavage, Sprague-Dawley",2450 mg/kg
same,NOAEL,"developmental, duration: 10 days, oral, gavage, Sprague-Dawley",≥ 500 mg/kg-day
same,NOAEL,"reproduction developmental, duration: 10 days, oral, gavage, F, Sprague-Dawley",≥ 50 mg/kg-day
same,NOAEL,"subchronic, duration: 13 weeks, oral, diet, Sprague-Dawley",> 480 mg/kg-day
CCCCCCCCCCCOC(=O)c1ccccc1C(=O)OCCCCCCCCCCC [Diundecyl phthalate],NOAEL,"short-term, duration: 21 days, oral, diet, Fischer 344",282 mg/kg-day
O=C(OCCOCCOCCOC(=O)c1ccccc1)c1ccccc1 [Ethylenebis(oxyethylene) dibenzoate],LD50,"dermal, Sprague-Dawley",> 2000 mg/kg
same,LD50,"oral, Sprague-Dawley",4190 mg/kg and 3540 mg/kg and 4840 mg/kg
same,NOAEL,"developmental, duration: 14 days, oral, gavage, Sprague-Dawley",1000 mg/kg-day
same,NOAEL,"subchronic, duration: 13 weeks, oral, diet, F",1000 mg/kg-day
same,NOAEL,"subchronic, duration: 13 weeks, oral, diet, M",1000 mg/kg-day
Fc1ccccc1 [Fluorobenzene],LC50,inhalation,26900 mg/m3
same,NOAEL,"short-term, duration: 28 days, inhalation, F, Sprague-Dawley",0.37 mg/L
same,NOAEL,"short-term, duration: 28 days, inhalation, M, Sprague-Dawley",0.37 mg/L
"CCCCCCC(C)OC(=O)CCCCC(=O)OC(C)CCCCCC (stereo not given) [Hexanedioic acid, bis(1-methylheptyl) ester]",LD50,"oral, gavage",> 64000 mg/kg
CCCCCCCCCCCCCCCCCC(=O)[O-].[Li+] [Lithium octadecanoate],LC50,oral,≥ 5000 mg/kg and ≤ 15000 mg/kg
CS [Methanethiol],LC50,"inhalation, Sprague-Dawley",1330 mg/m3 and ≥ 1260 mg/m3 and ≤ 1390 mg/m3
same,LC50,"inhalation, WBS/W",3310 mg/m3 and ≥ 2810 mg/m3 and ≤ 3900 mg/m3
same,LOAEL,[2],112 mg/m3
same,NOAEL,[2],33.4 mg/m3
same,LOAEL,[3],112 mg/m3
same,NOAEL,[3],33.4 mg/m3
"CCCCCCCCCCCCCCCCN(C)C [N,N-Dimethyl-1-hexadecanamine]",LD50,"oral, gavage",1020 mg/kg
same,LD50,"oral, gavage, Sprague-Dawley",> 2000 mg/kg
O=P(O)(O)c1ccccc1 [Phenylphosphonic acid],LD50,"dermal, occlusive, Crl:CD(SD) BR",> 2000 mg/kg
"CCCCOP(=O)(O)OCCCC [Phosphoric acid, dibutyl ester]",NOAEL,"subchronic, oral, gavage, Sprague-Dawley",30 mg/kg-day
"CCCCCCCC/C=C\CCCCCCCC(=O)OC[C@@H](O)[C@H]1OC[C@H](O)[C@H]1O [Sorbitan, mono-(9Z)-9-octadecenoate]",LD50,"oral, gavage",> 39800 mg/kg
same,LD50,"oral, gavage, Wistar",> 39800 mg/kg
same,LOAEL (% diet),[4],2.5
same,NOAEL,[4],1700 mg/kg-day
same,NOAEL,"chronic, oral, diet",1450 mg/kg-day
same,NOAEL (% diet),"chronic, oral, diet",2.5
c1ccc(-c2cccc(-c3ccccc3)c2)cc1 [Terphenyl],LC50,"oral, gavage, Sprague-Dawley",> 5000 mg/kg
CC(O)CN(CC(C)O)CC(C)O (stereo not given) [Triisopropanolamine],LD50,"oral, gavage, Wistar",6500 mg/kg
same,NOAEL,"chronic, duration: 102 weeks, oral, diet, Wistar",> 1220 mg/kg-day
same,NOAEL,"developmental, duration: 6 days, oral, gavage, Wistar",≥ 1000 mg/kg-day
same,NOAEL,"reproduction developmental, duration: 6 days, oral, gavage, F, Wistar",400 mg/kg-day
CCCCCCCCCCCC#N [n-Undecyl cyanide],LD50,oral,> 3400 mg/kg
